Test results from BindingDB's records for patent US10364255 (Boehringer Ingleheim International, 2019).

Target: T1, Pantetheinase [T26I] (Homo sapiens, UniProt O95497, T26I)
T1 construct: gene VNN1
Experiment: Enzymatic Assay
Description: Method 1:Vanin-1 Enzymatic Assay:The test compounds are dissolved in 100% DMSO at a concentration of 10 mM and in a first step diluted in DMSO to a concentration of 5 mM, followed by serial dilution steps in 100% DMSO. Dilution factor and number of dilution steps may vary according to needs. Typically 8 different concentrations by 1:5 dilutions are prepared, a further intermediate dilutions of the substances is carried out with assay buffer resulting in 1% final DMSO concentration in the assay. 0.15 nM of FLAG-tagged Vanin-1 (AA 22-493, T26I, produced internally) and test compounds are incubated at room temperature for 15 minutes in assay buffer (1 mM DTT, 0.0025% Brij-35, 50 mM HEPES, pH7.5). 3 μM D-Pantethine (Sigma, Cat#P2125-5G) in assay buffer is added and incubated for additional 30 minutes at room temperature. Reaction is stopped by adding equal volume of stop solution as the reaction mixture to reach 5 nM Nevirapine (as an internal standard) and 0.5% TFA. Assay plates are centrifuged for 2 minutes and the formation of pantothenic acid is detected by RapidFire Mass Spectrometry (mobile phase A: 0.1% formic acid in water, mobile phase B: 100% methanol) using graphitic carbon cartridge (Agilent Cat #G9206A).

T1 sequence (O95497 22-491 T26I limits assumed): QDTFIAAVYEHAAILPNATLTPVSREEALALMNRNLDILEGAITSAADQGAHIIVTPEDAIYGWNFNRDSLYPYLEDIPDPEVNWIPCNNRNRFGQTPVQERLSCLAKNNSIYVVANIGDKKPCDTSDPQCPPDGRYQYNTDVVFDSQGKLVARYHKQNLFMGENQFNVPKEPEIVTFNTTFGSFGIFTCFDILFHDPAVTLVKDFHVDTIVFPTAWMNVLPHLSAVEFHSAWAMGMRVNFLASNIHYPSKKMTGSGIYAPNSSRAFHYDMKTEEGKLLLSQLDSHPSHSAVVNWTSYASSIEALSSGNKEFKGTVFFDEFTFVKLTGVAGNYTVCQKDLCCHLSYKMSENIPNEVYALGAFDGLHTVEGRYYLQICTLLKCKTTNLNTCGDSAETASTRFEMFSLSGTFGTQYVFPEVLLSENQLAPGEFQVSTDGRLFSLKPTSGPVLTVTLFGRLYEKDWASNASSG

Structure (SMILES) | IC50
O=C(c1cnc2c(c1)OCCN2)N1CCCCC1 [US10364255, Ex. 3] | 2800 nM
CC(=O)N(C)[C@H]1CCN(C(=O)c2cnc3c(c2)OCC(C)(C)N3)C1 [US10364255, Ex. 14] | 0.5 nM
CC(=O)N(C)[C@H]1CCN(C(=O)c2cnc3c(c2)O[C@H](C)CN3)C1 [US10364255, Ex. 32] | 1.3 nM
O=C(c1cnc2c(c1)OCCN2)N1CCC(c2ccncc2)C1 (stereo not drawn) [US10364255, Ex. 38] | 14.2 nM
CC(=O)N(C)[C@H]1CCN(C(=O)c2cnc3c(c2)OCCN3)C1 [US10364255, Ex. 39] | 8.1 nM
CC(=O)N(C)[C@H]1CCN(C(=O)c2cnc3c(c2)O[C@H](CO)CN3)C1 [US10364255, Ex. 41] | 2.5 nM
O=C(c1cnc2c(c1)O[C@H](CO)CN2)N1CCC(c2ccncc2)C1 (stereo partly drawn) [US10364255, Ex. 43] | 3.7 nM
CC(=O)N(C)[C@H]1CCN(C(=O)c2cnc3c(c2)OCCCN3)C1 [US10364255, Ex. 44] | 1.7 nM
